# Experimental data: patent publication US20250051347A1, “BIFUNCTIONAL CHIMERIC HETEROCYCLIC COMPOUND AND USE THEREOF AS ANDROGEN RECEPTOR DEGRADER” (Hinova Pharmaceuticals, Inc., priority 2021, published 2025)
# Biological target: T1, androgen receptor (AR) splicing variant AR-v7 (Homo sapiens, UniProt P10275)
# T1 construct: The degradation activity of compounds on AR-v7 in 22RV1 cells; host or cells: 22RV1 cells
# T1 sequence (P10275 1-644 isoform P10275-3): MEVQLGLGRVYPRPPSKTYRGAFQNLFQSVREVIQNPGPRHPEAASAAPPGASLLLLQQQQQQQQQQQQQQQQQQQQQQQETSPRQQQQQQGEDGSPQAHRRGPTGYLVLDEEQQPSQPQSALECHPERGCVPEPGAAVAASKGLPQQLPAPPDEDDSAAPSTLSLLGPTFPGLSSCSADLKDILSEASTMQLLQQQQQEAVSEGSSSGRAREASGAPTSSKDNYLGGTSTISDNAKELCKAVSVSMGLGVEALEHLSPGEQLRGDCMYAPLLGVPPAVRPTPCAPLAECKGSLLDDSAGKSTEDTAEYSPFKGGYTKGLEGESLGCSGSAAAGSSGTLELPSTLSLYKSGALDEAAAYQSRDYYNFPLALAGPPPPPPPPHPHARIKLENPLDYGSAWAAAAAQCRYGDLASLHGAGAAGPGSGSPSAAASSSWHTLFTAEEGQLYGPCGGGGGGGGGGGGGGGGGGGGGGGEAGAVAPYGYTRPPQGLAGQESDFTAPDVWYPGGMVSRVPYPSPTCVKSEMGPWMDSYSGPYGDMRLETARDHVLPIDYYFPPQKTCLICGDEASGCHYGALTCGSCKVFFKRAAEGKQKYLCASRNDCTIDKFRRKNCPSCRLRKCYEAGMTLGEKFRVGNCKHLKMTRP
# Test: Degradation activity on androgen receptor splicing variant AR-v7 in 22RV1 cells (ELISA)
# Type: cell-based
# Details: AR-v7 degradation in 22RV1 cells, 48 h, class symbols
row,DC50 [nM],Structure (SMILES)
1,1000 to 5000,CC(=O)c1nccc(COc2ccc(C(C)(C)c3ccc(N4CCC5(CC4)CN(c4ccc6c(c4)C(=O)N(C4CCC(=O)NC4=O)C6=O)C5)cc3)cc2)n1 (centres unmarked) [Example 305]
2,1000 to 5000,"CC(=O)c1nccc(COc2ccc(C(C)(C)c3ccc(OC[C@H]4CCN4c4ccc5c(c4)C(=O)N(C4CCC(=O)NC4=O)C5=O)cc3)cc2)n1 (stereo partly drawn) [Example 307, 5-((R)-2-((4-(2-(4-((2-acetylpyrimidin-4-yl)methoxy)phenyl)propan-2-yl)phenoxy)methyl)azetidin-1-yl)-2-(2,6-dioxopiperidin-3-yl)isoindolin-1,3-dione]"
3,11 to 100,"CC(C)(c1ccc(C#CCNc2ccc3c(c2)C(=O)N(C2CCC(=O)NC2=O)C3=O)cc1)c1ccc(OCc2ccnc(N3CC4(COC4)C3)n2)cc1 (centres unmarked) [Example 309, 5-((3-(4-(2-(4-((2-(2-oxa-6-azaspiro[3.3]heptan-6-yl)pyrimidin-4-yl)methoxy)phenyl)propan-2-yl)phenyl)prop-2-yn-1-yl)amino)-2-(2,6-dioxopiperidin-3-yl)isoindolin-1,3-dione]"
4,101 to 1000,CC(C)(c1ccc(OCC#Cc2ccc3c(c2)C(=O)N(C2CCC(=O)NC2=O)C3=O)cc1)c1ccc(OCc2ccnc(N3CC4(COC4)C3)n2)cc1 (centres unmarked) [Example 310]
5,101 to 1000,"CC(C)(c1ccc(OCc2ccnc(N3CC4(COC4)C3)n2)cc1)c1ccc(OC[C@@H]2CCCN2c2ccc3c(c2)C(=O)N(C2CCC(=O)NC2=O)C3=O)cc1 (stereo partly drawn) [Example 313, 5-((S)-2-((4-(2-(4-((2-(2-oxa-6-azaspiro[3.3]heptane-6-yl)pyrimidin-4-yl)methoxy)phenyl)propan-2-yl)phenoxy)methyl)pyrrolidin-1-yl)-2-(2,6-dioxopiperidin-3-yl)isoindolin-1,3-dione]"
6,1000 to 5000,"CC(C)(c1ccc(OCc2ccnc(N3CC4(COC4)C3)n2)cc1)c1ccc(OC[C@H]2CCCN2c2ccc3c(c2)C(=O)N(C2CCC(=O)NC2=O)C3=O)cc1 (stereo partly drawn) [Example 314, 5-((R)-2-((4-(2-(4-((2-(2-oxa-6-azaspiro[3.3]heptan-6-yl)pyrimidin-4-yl)methoxy)phenyl)propan-2-yl)phenoxy)methyl)pyrrolidin-1-yl)-2-(2,6-dioxopiperidin-3-yl)isoindolin-1,3-dione]"
7,1000 to 5000,CC(C)(c1ccc(OCc2ccnc(N3CC4(COC4)C3)n2)cc1)c1ccc(O[C@H]2CCC[C@H]2Nc2ccc3c(c2)C(=O)N(C2CCC(=O)NC2=O)C3=O)cc1 (some centres unmarked) [Example 315]
8,11 to 100,CC(C)(c1ccc(Oc2ncc(I)cn2)cc1)c1ccc(O[C@H]2C[C@@H](Nc3ccc4c(c3)C(=O)N(C3CCC(=O)NC3=O)C4=O)C2)cc1 (some centres unmarked) [Example 316]
9,11 to 100,CC(C)(c1ccc(Oc2ccc(N3CC4(COC4)C3)nn2)cc1)c1ccc(O[C@H]2C[C@@H](Nc3ccc4c(c3)C(=O)N(C3CCC(=O)NC3=O)C4=O)C2)cc1 (some centres unmarked) [Example 317]
10,101 to 1000,"CC(C)(c1ccc(CCNc2ccc3c(c2)C(=O)N(C2CCC(=O)NC2=O)C3=O)cc1)c1ccc(OCc2ccnc(N3CC4(COC4)C3)n2)cc1 (centres unmarked) [Example 318, 5-((4-(2-(4-((2-(2-oxa-6-azaspiro[3.3]heptan-6-yl)pyrimidin-4-yl)methoxy)phenyl)propan-2-yl)phenylethyl)amino)-2-(2,6-dioxopiperidin-3-yl)isoindolin-1,3-dione]"
11,11 to 100,CC(C)(c1ccc(Oc2nc(-n3ccnn3)ccc2F)cc1)c1ccc(O[C@H]2C[C@H](Nc3ccc4c(c3)C(=O)N(C3CCC(=O)NC3=O)C4=O)C2)cc1 (some centres unmarked) [Example 319]
12,11 to 100,CC(C)(c1ccc(Oc2nc(-n3nccn3)ccc2F)cc1)c1ccc(O[C@H]2C[C@H](Nc3ccc4c(c3)C(=O)N(C3CCC(=O)NC3=O)C4=O)C2)cc1 (some centres unmarked) [Example 320]
13,11 to 100,CC(C)(c1ccc(Oc2ccc(-n3ccnn3)nn2)cc1)c1ccc(O[C@H]2C[C@H](Nc3ccc4c(c3)C(=O)N(C3CCC(=O)NC3=O)C4=O)C2)cc1 (some centres unmarked) [Example 325]
14,11 to 100,"Cc1nc(-c2ncc(Oc3ccc(C(C)(C)c4ccc(OC[C@@H]5CCN5c5ccc6c(c5)C(=O)N(C5CCC(=O)NC5=O)C6=O)cc4)cc3)cn2)no1 (stereo partly drawn) [Example 326, 2-(2,6-dioxopiperidin-3-yl)-5-((S)-2-((4-(2-(4-((2-(5-methyl-1,2,4-oxadiazol-3-yl)pyrimidin-5-yl)oxy)phenyl)propan-2-yl)phenoxy)methyl)azetidin-1-yl)isoindolin-1,3-dione]"
15,11 to 100,Cc1nc(-c2cnc(Oc3ccc(C(C)(C)c4ccc(O[C@H]5C[C@H](Nc6ccc7c(c6)C(=O)N(C6CCC(=O)NC6=O)C7=O)C5)cc4)cc3)nc2)no1 (some centres unmarked) [Example 327]
16,11 to 100,CC(C)(c1ccc(Oc2ncc(-n3nccn3)cn2)cc1)c1ccc(O[C@H]2C[C@@H](Nc3ccc4c(c3)C(=O)N(C3CCC(=O)NC3=O)C4=O)C2)cc1 (some centres unmarked) [Example 329]
17,11 to 100,"Cc1nc(-c2ccc(Oc3ccc(C(C)(C)c4ccc(O[C@H]5C[C@H](Nc6ccc7c(c6)C(=O)N(C6CCC(=O)NC6=O)C7=O)C5)cc4)cc3)cc2)no1 (some centres unmarked) [Example 332, 2-(2,6-dioxopiperidin-3-yl)-5-((1r,3r)-3-(4-(2-(4-(4-(5-methyl-1,2,4-oxadiazol-3-yl)phenoxy)phenyl)propan-2-yl)phenoxy)cyclobutyl)aminoisoindolin-1,3-dione]"
18,11 to 100,CC(C)(c1ccc(Oc2ccc(-n3nccn3)cc2)cc1)c1ccc(O[C@H]2C[C@H](Nc3ccc4c(c3)C(=O)N(C3CCC(=O)NC3=O)C4=O)C2)cc1 (some centres unmarked) [Example 334]

# Same assay, conditions: AR-v7 degradation in 22RV1 cells, 48 h, numeric values
row,DC50 [nM],Structure (SMILES)
1,> 10000,CC(O)c1nccc(COc2ccc(C(C)(C)c3ccc(OCCCCCCCCOCCN4CCN(c5ccc6c(c5)C(=O)N(C5CCC(=O)NC5=O)C6=O)CC4)cc3)cc2)n1 (centres unmarked) [Example 300]
2,> 10000,"CC(=O)c1nccc(COc2ccc(C(C)(C)c3ccc(OCC4CCN(c5cccc6c5C(=O)N(C5CCC(=O)NC5=O)C6=O)C4)cc3)cc2)n1 (centres unmarked) [Example 301, 4-(3-((4-(2-(4-((2-acetylpyrimidin-4-yl)methoxy)phenyl)propan-2-yl)phenoxy)methyl)pyrrolidin-1-yl)-2-(2,6-dioxopiperidin-3-yl)isoindolin-1,3-dione]"
3,≥ 10000,"CC(=O)c1nccc(COc2ccc(C(C)(C)c3ccc(OCC4CCN(c5ccc6c(c5)C(=O)N(C5CCC(=O)NC5=O)C6=O)C4)cc3)cc2)n1 (centres unmarked) [Example 302, 5-(3-((4-(2-(4-((2-acetylpyrimidin-4-yl)methoxy)phenyl)propan-2-yl)phenoxy)methyl)pyrrolidin-1-yl)-2-(2,6-dioxopiperidin-3-yl)isoindolin-1,3-dione]"
4,> 10000,"CC(=O)c1nccc(COc2ccc(C(C)(C)c3ccc(OCC4CCCN(c5cccc6c5C(=O)N(C5CCC(=O)NC5=O)C6=O)C4)cc3)cc2)n1 (centres unmarked) [Example 303, 4-(3-((4-(2-(4-((2-acetylpyrimidin-4-yl)methoxy)phenyl)propan-2-yl)phenoxy)methyl)piperidin-1-yl)-2-(2,6-dioxopiperidin-3-yl)isoindolin-1,3-dione]"
5,> 2500,"CC(=O)c1nccc(COc2ccc(C(C)(C)c3ccc(OCC4CCCN(c5ccc6c(c5)C(=O)N(C5CCC(=O)NC5=O)C6=O)C4)cc3)cc2)n1 (centres unmarked) [Example 304, 5-(3-((4-(2-(4-((2-acetylpyrimidin-4-yl)methoxy)phenyl)propan-2-yl)phenoxy)methyl)piperidin-1-yl)-2-(2,6-dioxopiperidin-3-yl)isoindolin-1,3-dione]"
